Assay results taken from patent US7935674B2, “Indole derivatives” (Mitsubishi Tanabe Pharma Corporation, priority 2005, dated 2011).
pIC50: −log10 of the molar value.

How the values were obtained:
[1] = test system: Sprague-Dawley (SD) rats; experiment: Urinary glucose excretion test in rats; format: in vivo, rat; conditions: male SD rats; 30 mg/kg by oral gavage; urine collected for 24 hours; daily amount of glucose excreted in urine per individual
Procedure: 2. Urinary Glucose Excretion Test in Rats Test Compounds:
Compounds described in the above examples were used for the Urinary glucose excretion test in rats.
6-week-old male Sprague-Dawley (SD) rats were housed in individual metabolic cages with free access to food and water from 2 days prior to the experiment. On the morning of the experiment, rats were administered vehicle (0.2% carboxymethyl cellulose solution containing 0.2% Tween80) or test compounds (30 mg/kg) by oral gavage at a volume of 10 ml/kg. Then, urine of the rat was collected for 24 hours, and the urine volume was measured. Subsequently, the glucose concentration in urine was quantified using the enzymatic assay kit and the daily amount of glucose excreted in urine per individual was calculated.

[2] = target: T1, human SGLT2 (Homo sapiens, UniProt P31639); experiment: Assay for SGLT2 inhibition (14C-AMG uptake in CHOK1 cells expressing human SGLT2); format: cell-based; conditions: CHOK1 cells expressing human SGLT2; 14C-AMG uptake, 0.5 mM, 2 hours at 37° C.; read-out: IC50
T1 construct: expressed in transfected cells; host or cells: CHOK1 (Chinese hamster ovary) cells, kept under Geneticin selection
T1 sequence (P31639 1-672): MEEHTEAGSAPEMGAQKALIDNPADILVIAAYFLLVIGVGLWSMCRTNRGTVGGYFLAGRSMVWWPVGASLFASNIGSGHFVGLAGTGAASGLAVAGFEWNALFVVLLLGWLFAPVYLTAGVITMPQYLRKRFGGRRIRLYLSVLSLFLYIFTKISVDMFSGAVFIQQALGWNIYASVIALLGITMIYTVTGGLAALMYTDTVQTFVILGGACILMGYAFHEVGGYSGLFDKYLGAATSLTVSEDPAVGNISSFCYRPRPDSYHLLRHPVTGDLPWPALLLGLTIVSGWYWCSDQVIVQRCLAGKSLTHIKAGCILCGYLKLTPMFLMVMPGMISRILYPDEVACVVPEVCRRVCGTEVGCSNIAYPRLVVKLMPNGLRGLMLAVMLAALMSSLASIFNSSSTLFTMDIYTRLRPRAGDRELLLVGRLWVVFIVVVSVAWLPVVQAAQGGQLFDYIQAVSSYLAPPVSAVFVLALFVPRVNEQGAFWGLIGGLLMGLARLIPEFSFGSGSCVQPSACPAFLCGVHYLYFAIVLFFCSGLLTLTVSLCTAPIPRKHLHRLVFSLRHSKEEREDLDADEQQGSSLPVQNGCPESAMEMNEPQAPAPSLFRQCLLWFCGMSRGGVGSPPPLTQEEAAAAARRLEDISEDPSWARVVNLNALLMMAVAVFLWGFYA
Procedure: 1. Assay for SGLT2 Inhibition
Compounds described in the above examples were used for the SGLT2 inhibition assay.
CHOK1 cells expressing human SGLT2 were seeded in 24-well plates at a density of 400,000 cells/well in F-12 nutrient mixture (Ham's F-12) containing 10% fetal bovine serum, 400 μg/ml Geneticin, 50 units/ml sodium penicillin G (Gibco-BRL) and 50 μg/ml streptomycin sulfate. After 2 days of culture at 37° C. in a humidified atmosphere containing 5% CO2, cells were washed once with the assay buffer (137 mM NaCl, 5 mM KCl, 1 mM CaCl2, 1 mM MgCl2, 50 mM Hepes, and 20 mM Tris, pH 7.4) and incubated with 250 μl of the buffer containing test compounds for 10 min at 37° C. Test compounds were dissolved in DMSO. The final concentration of DMSO was 0.5%. The transport reaction was initiated by addition of 50 μl [^14C]-methyl-α-D-glucopyranoside (^14C-AMG) solution (final concentration, 0.5 mM). After incubation for 2 hours at 37° C., the uptake was stopped by aspiration of the incubation mixture, the cells were washed three times with ice-cold PBS. Then, cells were solubilized with 0.3 N NaOH and aliquots were taken for determination of radioactivity by a liquid scintillation counter. Nonspecific AMG uptake was defined as that which occurred in the presence of 100 μM of phlorizin, a specific inhibitor of sodium-dependent glucose cotransporter. Specific uptake was normalized for the protein concentrations measured by the method of Bradford. The 50% inhibitory concentration (IC50) values were calculated from dose-response curves by least square method.

Row | SMILES | pIC50 [2] | Urinary glucose [1]
1 | OC[C@H]1O[C@@H](n2cc(Cc3ccc(OC(F)F)cc3)c3c(Cl)cccc32)[C@H](O)[C@@H](O)[C@@H]1O [Example 31, 4-Chloro-3-(4-(difluoromethoxy)phenylmethyl)-1-(β-D-gluco-pyranosyl)indole] | 8.59 | A (A≧2400 mg)
2 | CCc1ccc(Cc2cn([C@@H]3O[C@H](CO)[C@@H](O)[C@H](O)[C@H]3O)c3cccc(C)c23)cc1 [Example 23, 3-(4-Ethylphenylmethyl)-4-methyl-1-(β-D-glucopyranosyl)-indole] | 8.96 | –
3 | OC[C@H]1O[C@@H](n2cc(Cc3ccc(OCCCl)cc3)c3c(Cl)cccc32)[C@H](O)[C@@H](O)[C@@H]1O [Example 19, 4-Chloro-3-(4-(2-chloroethyloxy)phenylmethyl)-1-(β-D-gluco-pyranosyl)indole] | 8.41 | A (A≧2400 mg)
4 | OC[C@H]1O[C@@H](n2cc(Cc3ccc(O)cc3)c3c(Cl)cccc32)[C@H](O)[C@@H](O)[C@@H]1O [Example 46, 4-Chloro-3-(4-hydroxyphenylmethyl)-1-(β-D-glucopyranosyl)-indole] | 8.62 | A (A≧2400 mg)
5 | OC[C@H]1O[C@@H](n2cc(Cc3ccc(C(F)F)cc3)c3c(Cl)cccc32)[C@H](O)[C@@H](O)[C@@H]1O [Example 30, 4-Chloro-3-(4-(difluoromethyl)phenylmethyl)-1-(β-D-gluco-pyranosyl)indole] | 8.49 | A (A≧2400 mg)
6 | CCOc1ccc(Cc2cn([C@@H]3O[C@H](CO)[C@@H](O)[C@H](O)[C@H]3O)c3ccc(F)c(Cl)c23)cc1 [Example 35, 4-Chloro-3-(4-ethoxyphenylmethyl)-5-fluoro-1-(β-D-gluco-pyranosyl)indole] | 8.04 | A (A≧2400 mg)
7 | Cc1cccc2c1c(Cc1ccc3occc3c1)cn2[C@@H]1O[C@H](CO)[C@@H](O)[C@H](O)[C@H]1O [Example 40, 3-(Benzo[b]furan-5-yl-methyl)-4-methyl-1-(β-D-glucopyranosyl)indole] | 8.21 | B (2400 mg>B≧2000 mg)
8 | Cc1cccc2c1c(Cc1ccc(Br)cc1)cn2[C@@H]1O[C@H](CO)[C@@H](O)[C@H](O)[C@H]1O [Example 38, 3-(4-Bromophenylmethyl)-4-methyl-1-(β-D-glucopyranosyl)-indole] | 7.92 | B (2400 mg>B≧2000 mg)
9 | CSc1ccc(Cc2cn([C@@H]3O[C@H](CO)[C@@H](O)[C@H](O)[C@H]3O)c3cccc(Cl)c23)cc1 [Example 4, 4-Chloro-3-(4-(methylthio)phenylmethyl)-1-(β-D-gluco-pyranosyl)indole] | 8.77 | –
10 | OC[C@H]1O[C@@H](n2cc(Cc3ccc(F)cc3)c3c(Cl)cccc32)[C@H](O)[C@@H](O)[C@@H]1O [Example 27, 4-Chloro-3-(4-fluorophenylmethyl)-1-(β-D-glucopyranosyl)-indole] | 7.80 | B (2400 mg>B≧2000 mg)
11 | COc1ccc(Cc2cn([C@@H]3O[C@H](CO)[C@@H](O)[C@H](O)[C@H]3O)c3cccc(Cl)c23)cc1 [Example 5, 4-Chloro-3-(4-methoxyphenylmethyl)-1-(β-D-glucopyranosyl)-indole] | 8.74 | –
12 | CCc1ccc(Cc2cn([C@@H]3O[C@H](CO)[C@@H](O)[C@H](O)[C@H]3O)c3cccc(Cl)c23)cc1 [Example 1, 4-Chloro-3-(4-ethylphenylmethyl)-1-(β-D-glucopyranosyl)-indole] | 8.54 | –

Second part, led by results:

Row | pIC50 [2] | SMILES | Urinary glucose [1]
13 | 8.06 | Cc1cccc2c1c(Cc1ccc(-c3ccc(F)nc3)s1)cn2[C@@H]1O[C@H](CO)[C@@H](O)[C@H](O)[C@H]1O [Example 49, 3-(5-(6-Fluoro-3-pyridyl)thiophen-2-yl-methyl)-4-methyl-1-(β-D-glucopyranosyl)indole] | –
14 | 8.48 | COc1ccc(Cc2cn([C@@H]3O[C@H](CO)[C@@H](O)[C@H](O)[C@H]3O)c3cccc(F)c23)cc1 [Example 9, 4-Fluoro-3-(4-methoxyphenylmethyl)-1-(β-D-glucopyranosyl)-indole] | –
15 | 8.39 | OC[C@H]1O[C@@H](n2cc(Cc3ccc(OCCF)cc3)c3c(F)cccc32)[C@H](O)[C@@H](O)[C@@H]1O [Example 12, 4-Fluoro-3-(4-(2-fluoroethyloxy)phenylmethyl)-1-(β-D-gluco-pyranosyl)indole] | –
16 | 8.74 | OC[C@H]1O[C@@H](n2cc(Cc3ccc4c(c3)CCO4)c3c(Cl)cccc32)[C@H](O)[C@@H](O)[C@@H]1O [Example 21, 4-Chloro-3-(2,3-dihydrobenzo[b]furan-5-yl-methyl)-1-(β-D-glucopyranosyl)indole] | –
17 | 8.60 | OC[C@H]1O[C@@H](n2cc(Cc3ccc(OCCF)cc3)c3c(Cl)cccc32)[C@H](O)[C@@H](O)[C@@H]1O [Example 17, 4-Chloro-3-(4-(2-Fluoroethyloxy)phenylmethyl)-1-(β-D-glucopyranosyl)indole] | –
18 | 8.20 | Cc1ccc(Cc2cn([C@@H]3O[C@H](CO)[C@@H](O)[C@H](O)[C@H]3O)c3cccc(F)c23)cc1 [Example 24, 4-Fluoro-3-(4-methylphenylmethyl)-1-(β-D-glucopyranosyl)-indole] | –
19 | 7.96 | Cc1cccc2c1c(Cc1ccc(-c3ccccc3)s1)cn2[C@@H]1O[C@H](CO)[C@@H](O)[C@H](O)[C@H]1O [Example 50, 4-Methyl-3-(5-phenylthiophen-2-yl-methyl)-1-(β-D-gluco-pyranosyl)indole] | –
20 | 8.43 | CCc1ccc(Cc2cn([C@@H]3O[C@H](CO)[C@@H](O)[C@H](O)[C@H]3O)c3cccc(Br)c23)cc1 [Example 22, 4-Bromo-3-(4-ethylphenylmethyl)-1-(β-D-glucopyranosyl)indole] | –
21 | 8.21 | Cc1cccc2c1c(Cc1ccc(-c3cccs3)s1)cn2[C@@H]1O[C@H](CO)[C@@H](O)[C@H](O)[C@H]1O [Example 51, 4-Methyl-3-(5-(2-thienyl)thiophen-2-yl-methyl)-1-(β-D-gluco-pyranosyl)indole] | –
22 | 7.72 | Cc1cccc2c1c(Cc1ccc(-c3ccc(F)cc3)s1)cn2[C@@H]1O[C@H](CO)[C@@H](O)[C@H](O)[C@H]1O [Example 48, 3-(5-(4-Fluorophenyl)thiophen-2-yl-methyl)-4-methyl-1-(β-D-glucopyranosyl)indole] | –
23 | 8.60 | Cc1cccc2c1c(Cc1ccc(-c3cccc(C#N)c3)s1)cn2[C@@H]1O[C@H](CO)[C@@H](O)[C@H](O)[C@H]1O [Example 45, 3-(5-(3-Cyanophenyl)-thiophen-2-yl-methyl)-4-methyl-1-(β-D-glucopyranosyl)indole] | –
24 | 8.62 | CSc1ccc(Cc2cn([C@@H]3O[C@H](CO)[C@@H](O)[C@H](O)[C@H]3O)c3cccc(F)c23)cc1 [Example 10, 4-Fluoro-3-(4-(methylthio)phenylmethyl)-1-(β-D-gluco-pyranosyl)indole] | –
25 | 8.62 | Cc1ccc(Cc2cn([C@@H]3O[C@H](CO)[C@@H](O)[C@H](O)[C@H]3O)c3cccc(Cl)c23)cc1 [Example 11, 4-Chloro-3-(4-methylphenylmethyl)-1-(β-D-glucopyranosyl)-indole] | –
26 | 8.68 | CCc1ccc(Cc2cn([C@@H]3O[C@H](CO)[C@@H](O)[C@H](O)[C@H]3O)c3cccc(Cl)c23)s1 [Example 16, 4-Chloro-3-(5-ethylthiophen-2-yl-methyl)-1-(β-D-gluco-pyranosyl)indole] | –
